Calls of active or inactive are those of the source. The rule behind the calls is not given here.
Legend:
[1] = species on record: Rattus norvegicus; assay: Cytotoxicity against Wistar rat primary astrocytes assessed as inhibition of cell viability at 250 uM after 72 hrs by MTT assay; format: toxicity; conditions: astrocyte
[2] = species on record: Rattus norvegicus; assay: Cytotoxicity against Wistar rat primary astrocytes assessed as inhibition of cell viability at 100 uM after 72 hrs by MTT assay; format: toxicity; conditions: astrocyte
[3] = Cytotoxicity against Wistar rat C6 cells assessed as decrease in cell viability at 100 uM after 48 hrs by MTT assay relative to control; format: functional
[4] = Cytotoxicity against Wistar rat C6 cells assessed as decrease in cell viability at 100 uM after 72 hrs by MTT assay relative to control; format: functional
[5] = test system: C6; assay: Induction of necrosis in Wistar rat C6 cells at 50 to 100 uM after 72 hrs by propidium iodide staining based fluorescence microscopic analysis; format: functional, cell-based
[6] = test system: C6; assay: Cytotoxicity against Wistar rat C6 cells assessed as inhibition of cell viability at 25 uM after 48 hrs by MTT assay; format: functional, cell-based
[7] = test system: C6; assay: Cytotoxicity against Wistar rat C6 cells assessed as inhibition of cell viability at 25 uM after 72 hrs by MTT assay; format: functional, cell-based
[8] = test system: C6; assay: Induction of necrosis in Wistar rat C6 cells assessed as lowering of cell density at 50 to 100 uM; format: functional, cell-based
[9] = test system: C6; assay: Induction of necrosis in Wistar rat C6 cells assessed as change in cell morphology at 50 to 100 uM; format: functional, cell-based
[10] = test system: C6; assay: Cytotoxicity against Wistar rat C6 cells assessed as inhibition of cell viability at 5 uM after 72 hrs by MTT assay; format: functional, cell-based
[11] = test system: C6; assay: Cytotoxicity against Wistar rat C6 cells assessed as inhibition of cell viability at 50 uM after 48 hrs by MTT assay; format: functional, cell-based
[12] = test system: C6; assay: Cytotoxicity against Wistar rat C6 cells assessed as inhibition of cell viability at 50 uM after 72 hrs by MTT assay; format: functional, cell-based

With `CS(=O)(=O)c1ccc(C2SCC(=O)N2c2ccccn2)cc1` (stereo not drawn) the Activity [1] was “Non-Toxic” and the Activity [2] was “Non-Toxic”.

`Cn1nnc2c(C(N)=O)ncn2c1=O` [TEMOZOLOMIDE] gave an Activity [3] of 42.3% and an Activity [4] of 39.7%.

In the case of `CS(=O)(=O)c1ccc(C2SCC(=O)N2c2ccc3c(c2)OCO3)cc1` (stereo not drawn), the Activity [1] is reported as “Non-Toxic” and the Activity [2] is reported as “Non-Toxic”.

With `CCN(CC)CCCN1C(=O)CSC1c1ccc(S(C)(=O)=O)cc1` (stereo not drawn) the Activity [1] was “Toxic” and the Activity [2] was “Non-Toxic”.

For `CS(=O)(=O)c1ccc(C2SCC(=O)N2Cc2ccccn2)cc1` (stereo not drawn), the Activity [3] was 47.2%, the Activity [4] was 77% and the Activity [5] was “Active”. The inhibition [6] was “Active”, the inhibition [7] was “Active” and the Activity [1] was “Non-Toxic”. For the same compound, the Activity [2] was “Non-Toxic”, the Activity [8] was “Active” and the Activity [9] was “Active”.

For `CS(=O)(=O)c1ccc(C2SCC(=O)N2CCCN2CCCCC2)cc1` (stereo not drawn), the Activity [1] was “Non-Toxic” and the Activity [2] was “Non-Toxic”.

In the case of `CSc1ccc(C2SCC(=O)N2CCCN2CCCCC2)cc1` (stereo not drawn), the Activity [3] is reported as 52.2%, the Activity [4] is reported as 78% and the Activity [5] is reported as “Active”. The inhibition [10] was “Active”, the Activity [1] was “Toxic” and the Activity [2] was “Non-Toxic”. For the same compound, the Activity [8] was “Active” and the Activity [9] was “Active”.

In the case of `CSc1ccc(N2C(=O)CSC2c2ccc(S(C)(=O)=O)cc2)cc1` (stereo not drawn), the Activity [1] is reported as “Non-Toxic” and the Activity [2] is reported as “Non-Toxic”.

In the case of `CSc1ccc(C2SCC(=O)N2c2ccc(SC)cc2)cc1` (stereo not drawn), the Activity [1] is reported as “Non-Toxic” and the Activity [2] is reported as “Non-Toxic”.

With `CSc1ccc(C2SCC(=O)N2c2ccccn2)cc1` (stereo not drawn) the Activity [1] was “Non-Toxic” and the Activity [2] was “Non-Toxic”.

In the case of `CSc1ccc(C2SCC(=O)N2Cc2ccccn2)cc1` (stereo not drawn), the Activity [3] is reported as 48%, the Activity [4] is reported as 75% and the Activity [5] is reported as “Active”. The inhibition [10] was “Active”, the Activity [1] was “Non-Toxic” and the Activity [2] was “Non-Toxic”. The Activity [8] was “Active” and the Activity [9] was “Active”.

In the case of `CSc1ccc(C2SCC(=O)N2CCN2CCCCC2)cc1` (stereo not drawn), the Activity [4] is reported as 61%, the Activity [1] is reported as “Toxic” and the Activity [2] is reported as “Non-Toxic”.

In the case of `CSc1ccc(C2SCC(=O)N2c2ccc3c(c2)OCO3)cc1` (stereo not drawn), the Activity [3] is reported as 61.2%, the Activity [4] is reported as 81.7% and the Activity [5] is reported as “Active”. The inhibition [11] was “Active”, the inhibition [12] was “Active” and the Activity [1] was “Non-Toxic”. The Activity [2] was “Non-Toxic”, the Activity [8] was “Active” and the Activity [9] was “Active”.

In the case of `CS(=O)(=O)c1ccc(C2SCC(=O)N2CCN2CCCCC2)cc1` (stereo not drawn), the Activity [1] is reported as “Non-Toxic” and the Activity [2] is reported as “Non-Toxic”.

With `CCN(CC)CCCN1C(=O)CSC1c1ccc(SC)cc1` (stereo not drawn) the Activity [4] was 67.5%, the Activity [1] was “Toxic” and the Activity [2] was “Non-Toxic”.

— ChEMBL document CHEMBL3875161, “Thiazolidin-4-ones from 4-(methylthio)benzaldehyde and 4-(methylsulfonyl)benzaldehyde: Synthesis, antiglioma activity and cytotoxicity” (Eur J Med Chem, 2016)
